Test results reported in PubChem BioAssay (NCI).
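Tested at 5 concentrations; 48 h exposure; 96-well plates; endpoints linearly interpolated, else capped at highest concentration. Definition used: TGI = concentration required for complete inhibition of growth.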

Tests used:
Assay in all cases: NCI anticancer screen, dose series, 48 h
RXF 393 renal = test system: RXF 393 renal
IGROV1 ovarian = test system: IGROV1 ovarian
SF-539 CNS = test system: SF-539 CNS
SK-MEL-2 melanoma = test system: SK-MEL-2 melanoma
OVCAR-5 ovarian = test system: OVCAR-5 ovarian
SNB-75 CNS = test system: SNB-75 CNS
NCI-H460 lung = test system: NCI-H460 lung
SK-OV-3 ovarian = test system: SK-OV-3 ovarian
SNB-19 CNS = test system: SNB-19 CNS
HCC-2998 colon = test system: HCC-2998 colon
CCRF-CEM leukemia = test system: CCRF-CEM leukemia
SW-620 colon = test system: SW-620 colon
HT29 colon = test system: HT29 colon
K-562 leukemia = test system: K-562 leukemia
MDA-MB-435 = test system: MDA-MB-435
MDA-N = test system: MDA-N
786-0 renal = test system: 786-0 renal
ACHN renal = test system: ACHN renal
A498 renal = test system: A498 renal
U251 CNS = test system: U251 CNS

Question: `COc1cccc(N=Cc2cc3cc(Br)ccc3nc2Cl)c1` was tested. Which TGI (RXF 393 renal) did it give?
Answer: Its TGI is greater than 50 µM.

Question: What about the TGI (IGROV1 ovarian) of the same compound?
Answer: The TGI was greater than 50 µM.

Question: And the TGI (SF-539 CNS)?
Answer: The TGI was greater than 50 µM.

Question: And the TGI (SK-MEL-2 melanoma)?
Answer: Its TGI is greater than 50 µM.

Question: And the TGI (OVCAR-5 ovarian)?
Answer: Its TGI is greater than 50 µM.

Question: What about the TGI (SNB-75 CNS) of the same compound?
Answer: Its TGI is greater than 50 µM.

Question: And the TGI (NCI-H460 lung)?
Answer: The TGI was greater than 50 µM.

Question: And the TGI (SK-OV-3 ovarian)?
Answer: Its TGI is greater than 50 µM.

Question: And the TGI (SNB-19 CNS)?
Answer: The TGI was greater than 50 µM.

Question: What about the TGI (HCC-2998 colon) of the same compound?
Answer: Its TGI is greater than 50 µM.

Question: And the TGI (CCRF-CEM leukemia)?
Answer: The TGI was 48.8 µM.

Question: What about the TGI (SW-620 colon) of the same compound?
Answer: The TGI was greater than 50 µM.

Question: And the TGI (HT29 colon)?
Answer: Its TGI is greater than 50 µM.

Question: What about the TGI (K-562 leukemia) of the same compound?
Answer: The TGI was greater than 50 µM.

Question: And the TGI (MDA-MB-435)?
Answer: Its TGI is greater than 50 µM.

Question: What about the TGI (MDA-N) of the same compound?
Answer: Its TGI is greater than 50 µM.

Question: And the TGI (786-0 renal)?
Answer: Its TGI is 11.3 µM.

Question: What does the source list for `CC(=O)N1C(Nc2ccccn2)CCN1c1ccccc1` (stereo not drawn)?
Answer: TGI (RXF 393 renal): > 10 µM; TGI (IGROV1 ovarian): > 10 µM; TGI (ACHN renal): > 10 µM; TGI (SF-539 CNS): > 10 µM; TGI (SK-MEL-2 melanoma): > 10 µM; TGI (OVCAR-5 ovarian): > 10 µM; TGI (SNB-75 CNS): > 10 µM; TGI (NCI-H460 lung): > 10 µM; TGI (SK-OV-3 ovarian): > 10 µM; TGI (SNB-19 CNS): > 10 µM; TGI (HCC-2998 colon): > 10 µM; TGI (CCRF-CEM leukemia): > 10 µM; TGI (SW-620 colon): > 10 µM; TGI (HT29 colon): > 10 µM; TGI (K-562 leukemia): > 10 µM; TGI (MDA-MB-435): > 10 µM; TGI (MDA-N): > 10 µM; TGI (786-0 renal): > 10 µM

Question: Which results are given for `O=C1c2ccccc2S(=O)(=O)c2c1cccc2[N+](=O)[O-]`?
Answer: TGI (RXF 393 renal): 8.44 µM; TGI (IGROV1 ovarian): 5.08 µM; TGI (ACHN renal): 8.04 µM; TGI (SF-539 CNS): 4.34 µM; TGI (SK-MEL-2 melanoma): > 10 µM; TGI (OVCAR-5 ovarian): > 10 µM; TGI (SNB-75 CNS): > 9.55 µM; TGI (A498 renal): > 8.45 µM; TGI (NCI-H460 lung): > 10 µM; TGI (SK-OV-3 ovarian): > 10 µM; TGI (SNB-19 CNS): > 10 µM; TGI (HCC-2998 colon): > 10 µM; TGI (CCRF-CEM leukemia): 4.19 µM; TGI (SW-620 colon): 3.47 µM; TGI (HT29 colon): > 7.01 µM; TGI (K-562 leukemia): > 10 µM; TGI (MDA-MB-435): 3.64 µM; TGI (U251 CNS): > 8.28 µM; TGI (786-0 renal): 3.13 µM

Question: Which results are given for `O=C(/C=C/c1ccccc1)/C=N/N1C(=S)N(c2ccccc2)C(=Nc2ccccc2)C1=Nc1ccccc1`?
Answer: TGI (RXF 393 renal): > 100 µM; TGI (IGROV1 ovarian): > 100 µM; TGI (ACHN renal): > 100 µM; TGI (SF-539 CNS): > 100 µM; TGI (SK-MEL-2 melanoma): > 100 µM; TGI (OVCAR-5 ovarian): > 100 µM; TGI (NCI-H460 lung): > 100 µM; TGI (SK-OV-3 ovarian): > 100 µM; TGI (SNB-19 CNS): > 100 µM; TGI (HCC-2998 colon): > 100 µM; TGI (SW-620 colon): > 100 µM; TGI (HT29 colon): > 100 µM; TGI (K-562 leukemia): > 100 µM; TGI (MDA-N): > 100 µM; TGI (U251 CNS): > 100 µM; TGI (786-0 renal): > 100 µM

Question: How did the TGI (IGROV1 ovarian) turn out when `N#CCc1nc2ccccc2c(=O)[nH]1` was run?
Answer: Its TGI is greater than 100 µM.

Question: What about the TGI (ACHN renal) of the same compound?
Answer: Its TGI is greater than 100 µM.

Question: What about the TGI (SF-539 CNS) of the same compound?
Answer: Its TGI is greater than 100 µM.

Question: And the TGI (SK-MEL-2 melanoma)?
Answer: The TGI was greater than 100 µM.

Question: What about the TGI (OVCAR-5 ovarian) of the same compound?
Answer: The TGI was greater than 100 µM.

Question: What about the TGI (SNB-75 CNS) of the same compound?
Answer: The TGI was greater than 100 µM.

Question: What about the TGI (NCI-H460 lung) of the same compound?
Answer: Its TGI is greater than 100 µM.

Question: What about the TGI (SK-OV-3 ovarian) of the same compound?
Answer: The TGI was greater than 100 µM.

Question: What about the TGI (SNB-19 CNS) of the same compound?
Answer: The TGI was greater than 100 µM.

Question: What about the TGI (HCC-2998 colon) of the same compound?
Answer: The TGI was greater than 100 µM.

Question: What about the TGI (SW-620 colon) of the same compound?
Answer: Its TGI is greater than 100 µM.

Question: What about the TGI (HT29 colon) of the same compound?
Answer: Its TGI is greater than 100 µM.

Question: What about the TGI (MDA-MB-435) of the same compound?
Answer: The TGI was greater than 100 µM.

Question: And the TGI (MDA-N)?
Answer: The TGI was greater than 100 µM.

Question: What about the TGI (U251 CNS) of the same compound?
Answer: Its TGI is greater than 100 µM.

Question: What about the TGI (786-0 renal) of the same compound?
Answer: Its TGI is greater than 100 µM.

Question: What does the source list for `Nc1ncnc2ccc(Sc3ccc4ncnc(N)c4c3)cc12`?
Answer: TGI (RXF 393 renal): > 100 µM; TGI (IGROV1 ovarian): > 100 µM; TGI (ACHN renal): > 100 µM; TGI (SF-539 CNS): > 100 µM; TGI (SK-MEL-2 melanoma): > 100 µM; TGI (OVCAR-5 ovarian): > 100 µM; TGI (SNB-75 CNS): > 100 µM; TGI (A498 renal): > 100 µM; TGI (NCI-H460 lung): > 100 µM; TGI (SK-OV-3 ovarian): > 100 µM; TGI (SNB-19 CNS): > 100 µM; TGI (CCRF-CEM leukemia): > 100 µM; TGI (SW-620 colon): > 100 µM; TGI (HT29 colon): > 100 µM; TGI (K-562 leukemia): > 100 µM; TGI (MDA-MB-435): > 100 µM; TGI (U251 CNS): > 100 µM; TGI (786-0 renal): > 100 µM

Question: `COC(=O)c1ccccc1CC1Cc2ccc3c(c2C1=O)CCC3` (stereo not drawn) was tested. Which TGI (RXF 393 renal) did it give?
Answer: Its TGI is greater than 100 µM.

Question: What about the TGI (IGROV1 ovarian) of the same compound?
Answer: The TGI was greater than 100 µM.

Question: What about the TGI (ACHN renal) of the same compound?
Answer: Its TGI is greater than 100 µM.

Question: And the TGI (SF-539 CNS)?
Answer: Its TGI is greater than 100 µM.

Question: What about the TGI (SK-MEL-2 melanoma) of the same compound?
Answer: Its TGI is greater than 100 µM.

Question: What about the TGI (OVCAR-5 ovarian) of the same compound?
Answer: The TGI was greater than 100 µM.

Question: What about the TGI (SNB-75 CNS) of the same compound?
Answer: Its TGI is 80.7 µM.

Question: And the TGI (NCI-H460 lung)?
Answer: Its TGI is greater than 100 µM.

Question: What about the TGI (SK-OV-3 ovarian) of the same compound?
Answer: Its TGI is greater than 100 µM.

Question: What about the TGI (SNB-19 CNS) of the same compound?
Answer: The TGI was greater than 100 µM.

Question: And the TGI (HCC-2998 colon)?
Answer: Its TGI is greater than 100 µM.

Question: And the TGI (CCRF-CEM leukemia)?
Answer: The TGI was greater than 100 µM.

Question: And the TGI (SW-620 colon)?
Answer: Its TGI is greater than 100 µM.

Question: What about the TGI (HT29 colon) of the same compound?
Answer: The TGI was greater than 100 µM.

Question: What about the TGI (K-562 leukemia) of the same compound?
Answer: Its TGI is greater than 100 µM.

Question: And the TGI (MDA-MB-435)?
Answer: Its TGI is 78.7 µM.

Question: And the TGI (MDA-N)?
Answer: The TGI was greater than 100 µM.

Question: And the TGI (U251 CNS)?
Answer: Its TGI is greater than 100 µM.

Question: What about the TGI (786-0 renal) of the same compound?
Answer: The TGI was greater than 100 µM.
